US11684614B2, “Formulations of hydroxypyridonate actinide/lanthanide decorporation agents” (priority 2017, dated 2023)
Values joined by “and” are separate entries in the source; they are usually repeats but may differ in a detail not shown here. Equal values may be shown once.

Experiment: Repeated-treatment efficacy for removing an intravenous dose of 238Pu (excretion, tissue retention, clinical observations), female and male arms
Format: in vivo, Swiss-Webster mice
Details: listed as 3,4,3-LI(1,2-HOPO); for % Recovered Dose - Feces per Day: male mice
Method: The objective of this study was to characterize the efficacy of 3,4,3-L1(1,2-HOPO) at enhancing elimination from an internal plutonium burden in female and male Swiss-Webster mice administered a soluble citrate complex of ^238Pu and treated multiple times, starting at 24 hours after the exposure. Efficacy was evaluated by comparing the tissue contents, urinary and fecal excretions of ^238Pu in treated animals versus untreated animals.
The medical countermeasure 3,4,3-L1(1,2-HOPO) was administered parenterally (ip) or orally (po) via consecutive injections or gavages (six daily or twelve twice daily) starting at 24 hours post contamination at the following four selected doses: 30 μmol/kg ip, 150 μmol/kg po, 300 μmol/kg po, and 600 μmol/kg po (equivalent to respective approximate human doses range of […], using the accepted conversion system of mouse doses into human equivalent doses—HED—based on body surface area). Oral doses also included the permeability enhancer selected during formulation development work.
• Challenge isotope: ^238Pu • Challenge dose: 25 nCi (i.e., approximately 0.8 μCi/kg) • Route of contamination: Intravenous (iv) tail-vein • Route of treatment: Intraperitoneal Injection (ip) or Oral (po) • Frequency of treatment: Multiple (once- or twice-daily for 6 days) doses, starting 24 hr postcontamination • Treatment dose calculation: Dose calculations (mg/kg or μmol/kg) for the decorporation agent were based on the individual body weight measured after contamination. • Study Duration: 11 days, in-life
c. […] Test article and control dose formulations were prepared within 1 day of dose administration, by weighing out the appropriate amount of test article, dispersing in vehicle. For ip solutions, the test article was used alone, while for oral suspensions, a mixture of test article and excipient (90:10, w:w) was used. The pH was adjusted to 7.0-7.4 for ip administration and 5.0-5.5 for oral administration with sterile NaOH. Dose formulations were prepared at room temperature and filter-sterilized. • Storage: 2-8° C.; refrigerated; protected from light. • Characterization: The concentration of each test article formulation was verified by high-performance liquid chromatography-mass spectrometry. • Test Article Handling: Test, reference, and control article formulations were handled with the use of eye protection, gloves, and a protective laboratory coat. • Correct Dose Assurance: The test article was weighed with calibrated balances. The administration of each dose formulation was properly documented, and the amount administered to each animal recorded.
e. Experimental Procedures (In-Life Evaluations and Euthanasia) • Contamination: Single administration by intravenous (iv) tail-vein injection (0.2 mL injection volume) under isoflurane anesthesia. Three standard 0.2 mL injections were performed into polyethylene bottles and pre-loaded with aliquots of concentrated nitric acid on each injection day. Six female and six male mice were culled for necropsy 1 hr post-contamination and were used as standards. A11 standards were processed and counted together with the final samples to allow verification of the contamination dose. • Dose Administration: Single administration by intraperitoneal injection (ip) or oral gavage (po) under isoflurane anesthesia. • Mortality/Morbidity: Assessed at least once daily. • Clinical Observations: Recorded once daily (4 hr post-dose on day of treatment), or more often as clinical signs warranted. […]

[1] = male arm table, Day 11 necropsy, animal group M

SMILES: O=C(NCCCN(CCCCN(CCCNC(=O)c1cccc(=O)n1O)C(=O)c1cccc(=O)n1O)C(=O)c1cccc(=O)n1O)c1cccc(=O)n1O [3,4,3-L1(1,2-HOPO)]
- % Recovered Dose Urine per Day, Day 5 [1]: 0.66% and 0.36% and 0.19% and 0.53% and 0.60% and 0.47% and 0.30% and 0.22%
- % Recovered Dose Urine per Day, Day 6 [1]: 0.38% and 0.35% and 0.46% and 0.26% and 0.36% and 0.41% and 0.12% and 0.61%
- % Recovered Dose Urine per Day, Day 7 [1]: 0.73% and 0.69% and 0.76% and 0.65% and 0.63% and 0.83% and 0.47% and 0.38%
- % Recovered Dose Urine per Day, Day 8 [1]: 0.40% and 0.36% and 0.42% and 0.32% and 0.43% and 0.34% and 0.74% and 0.33%
- % Recovered Dose Urine per Day, Day 9 [1]: 0.40% and 0.45% and 0.37% and 0.42% and 0.61% and 0.41% and 0.48%
- % Recovered Dose Urine per Day, Day 10 [1]: 0.12% and 0.23% and 0.16% and 0.28% and 0.21% and 0.62% and 0.46% and 0.27%
- % Recovered Dose Urine per Day, Day 11 [1]: 0.35% and 0.30% and 0.22% and 0.20% and 0.36% and 0.43% and 0.26% and 0.42%
- % Recovered Dose - Feces per Day (group B, feces day 1, Day 7 necropsy): 4.37% and 8.32% and 7.75% and 4.30%
- % Recovered Dose - Feces per Day (group B, feces day 2, Day 7 necropsy): 7.66% and 12.16% and 9.09% and 13.43%
- % Recovered Dose - Feces per Day (group B, feces day 3, Day 7 necropsy): 2.15% and 3.85% and 3.59% and 3.55%
- % Recovered Dose - Feces per Day (group B, feces day 4, Day 7 necropsy): 3.14% and 4.08% and 1.98% and 4.25%
- % Recovered Dose - Feces per Day (group B, feces day 5, Day 7 necropsy): 1.34% and 2.97% and 0.93% and 2.49%
- % Recovered Dose - Feces per Day (group B, feces day 6, Day 7 necropsy): 2.28% and 6.44% and 1.47% and 2.02%
- % Recovered Dose - Feces per Day (group B, feces day 7, Day 7 necropsy): 1.46% and 2.68% and 1.21% and 2.10%
- % Recovered Dose - Feces per Day (group C, feces day 1, Day 7 necropsy): 8.78% and 6.29% and 9.94% and 4.97%
- % Recovered Dose - Feces per Day (group C, feces day 2, Day 7 necropsy): 15.31% and 12.37% and 22.78% and 14.58%
- % Recovered Dose - Feces per Day (group C, feces day 3, Day 7 necropsy): 2.49% and 5.42% and 4.54% and 6.24%
- % Recovered Dose - Feces per Day (group C, feces day 4, Day 7 necropsy): 3.01% and 3.04% and 5.87% and 3.77%
- % Recovered Dose - Feces per Day (group C, feces day 5, Day 7 necropsy): 1.70% and 2.00% and 3.00% and 2.15%
- % Recovered Dose - Feces per Day (group C, feces day 6, Day 7 necropsy): 1.91% and 2.24% and 2.37% and 2.32%
- % Recovered Dose - Feces per Day (group C, feces day 7, Day 7 necropsy): 1.21% and 1.32% and 1.95% and 1.31%
- % Recovered Dose - Feces per Day (group E, feces day 1, Day 7 necropsy): 6.19% and 11.96% and 7.28% and 11.97%
- % Recovered Dose - Feces per Day (group E, feces day 2, Day 7 necropsy): 19.35% and 15.22% and 16.75% and 13.98%
- % Recovered Dose - Feces per Day (group E, feces day 3, Day 7 necropsy): 3.91% and 2.72% and 3.36% and 3.87%
- % Recovered Dose - Feces per Day (group E, feces day 4, Day 7 necropsy): 5.36% and 3.66% and 5.40% and 5.25%
- % Recovered Dose - Feces per Day (group E, feces day 5, Day 7 necropsy): 1.97% and 1.84% and 1.67% and 1.79%
- % Recovered Dose - Feces per Day (group E, feces day 6, Day 7 necropsy): 2.01% and 2.66% and 2.92% and 1.87%
- % Recovered Dose - Feces per Day (group E, feces day 7, Day 7 necropsy): 2.11% and 1.97% and 2.22% and 1.18%
- % Recovered Dose - Feces per Day (group F, feces day 1, Day 7 necropsy): 6.91% and 7.78% and 14.62% and 9.13%
- % Recovered Dose - Feces per Day (group F, feces day 2, Day 7 necropsy): 14.25% and 13.00% and 16.24% and 15.40%
- % Recovered Dose - Feces per Day (group F, feces day 3, Day 7 necropsy): 13.31% and 3.36% and 3.68% and 5.91%
- % Recovered Dose - Feces per Day (group F, feces day 4, Day 7 necropsy): 4.17% and 4.09% and 3.98% and 3.52%
- % Recovered Dose - Feces per Day (group F, feces day 5, Day 7 necropsy): 1.77% and 2.34% and 1.75% and 1.78%
- % Recovered Dose - Feces per Day (group F, feces day 6, Day 7 necropsy): 1.60% and 2.84% and 1.72% and 1.54%
- % Recovered Dose - Feces per Day (group F, feces day 7, Day 7 necropsy): 0.74% and 2.65% and 2.45% and 1.59%
